# Measured values published in patent publication US20140066385A1, “METHOD FOR TREATING CANCER BY COMBINED USE OF DRUGS” (Astellas Pharma Inc., priority 2011, published 2014).
# Tested on: tumor tissues in human lung cancer cell line Calu-6 tumor-bearing mice
# Experiment: Example 8: immunochemical staining of iNOS, macrophage (F4/80) and nitrotyrosine in Calu-6 tumor tissue
# Type: in vivo, nude mice
# Description: The dose of FK330 is expressed in terms of the weight of a simple substance (non-hydrate). A paclitaxel injectable preparation (paclitaxel injection liquid “Sawai”) was purchased from Sawai Pharmaceutical Co., Ltd., and was used as paclitaxel. Rat anti-mouse F4/80 antigen monoclonal antibody, rabbit anti-iNOS polyclonal antibody, and rabbit anti-nitrotyrosine antibody were respectively purchased from AbD Serotec (Oxford, UK), Santa Cruz Biotechnology, Inc. (Santa Cruz, Calif., US), and Millipore Corp. (Billerica, Mass., USA) and used.
# FK330 was suspended (20 mg/mL) in a 0.5% aqueous methyl cellulose solution (0.5% MC) and orally administered. Paclitaxel was prepared with physiological saline for injection (Otsuka Pharmaceutical Group) to a concentration of 1 mg/mL at the time of use.
# Human lung cancer-derived Calu-6 (HTB-56) was obtained from American Type
# Culture Collection (VA, USA). The cells were cultured under the conditions of 37° C. and 5% CO2 by using RPMI1640 medium containing 10% heat-inactivated fetal bovine serum (FBS). The cells were harvested with trypsin and were suspended in PBS at 6×10^7 cells/mL, and the suspension was mixed with an equal amount of Matrigel (trade name) Basement Membrane Matrix (manufactured by Becton Dickinson Co., Bedford, Mass., USA).
# Five-week old male nude mice (CAnN Cg-Foxn1nu/CrlCrlj(nu/nu)) were purchased from Charles River Laboratories Japan, Inc. (Japan, Kanagawa). The animals were raised under specific pathogen-free (SPF) conditions throughout the test period by feeding standard feedstuff and drinking water. The cultured cells were subcutaneously inoculated into the dorsal region of the nude mice at a concentration of 3×10^6 cells/0.1 mL/mouse. Nude mice which had the tumor volumes (major axis×[minor axis]^2×0.5) ranging from 136.8 mm^3 to 248.5 mm^3 were assigned by using SAS to minimize the fluctuation in the tumor volume between the groups and within the group.
# Drug administration was initiated from the first day of administration (Day 0). The respective groups (n=5) were treated as follows. FK330 was orally gavaged in an amount of 5 mL/kg from Day 0 to Day 6, and paclitaxel was intravenously administered through the tail vein in an amount of 10 mL/kg from Day 0 to Day 5.
# FK330 single administration group: FK330 100 mg/kg bid (200 mg/kg/day, from Day 0 to Day 6)
# Paclitaxel single administration group: Paclitaxel 10 mg/kg/day (from Day 0 to Day 5)
# Combined use group: FK330 100 mg/kg bid (200 mg/kg/day, from Day 0 to Day 6)+paclitaxel 10 mg/kg/day (from Day 0 to Day 5)
# FK330 was orally gavaged (5 mL/kg) twice a day at an interval of 6 to 8 hours. Paclitaxel was administered by intravenous bolus injection (10 mL/kg) through the tail vein 1 to 4 hours after the administration of FK330.
# On Day 6, the tumor tissues were harvested from the mice. Immersion fixation was carried out at 4° C. for 12 hours with a 4% para-formaldehyde-phosphate buffer solution (Wako Pure Chemical Industries, Ltd.). After the tissue fixation, according to the conventional method, sucrose replacement was carried out using 10%, 15% and 20% sucrose/phosphate buffer solutions in a stepwise manner at 4° C. After completion of the replacement, the cancer tissues were embedded in O.C.T. Compound (Toronto Research Chemicals, Inc., Toronto, Canada), and frozen blocks were prepared with dry ice/acetone and stored at −80° C.
# Frozen sections at 5 μm thickness were prepared by a cryostat (Sakura Finetech Japan Co., Ltd.) and were air-dried. The dried frozen sections were washed with a 4% para-formaldehyde-phosphate buffer solution, and then in order to inactivate the endogenous peroxidase activity, the sections were treated for 30 minutes with 0.3% hydrogen peroxide/methanol. Mouse macrophage, iNOS and nitrotyrosine staining was carried out by the following procedure. In regard to the iNOS and nitrotyrosine staining, antigen retrieval was carried out by microwave irradiation (3 minutes/500 W) before the immunochemical staining. […]
# [1] = combined use: FK330 100 mg/kg bid p.o. Day 0 to Day 6 + paclitaxel 10 mg/kg/day, Day 6
# [2] = paclitaxel 10 mg/kg/day i.v. Day 0 to Day 5 alone, tumor harvested Day 6
Structure (SMILES),iNOS protein expression in the tumor [1],macrophage infiltration in the tumor [1],nitrotyrosine production in the tumor [1],amount of nitrotyrosine (major end-product of NO) in the tumor tissue [2],iNOS protein expression in the tumor tissue [2],infiltration of macrophages (F4/80) in the tumor tissue [2]
"O=C(/C=C/c1ccc(Cl)cc1)N[C@@H](Cc1ccccn1)C(=O)NCC(=O)N1CCC(Oc2cc(C(F)(F)F)ncn2)CC1 [FK330, N^2-[(2E)-3-(4-chlorophenyl)-2-propenoyl]-N-[2-oxo-2-(4-{[6-(trifluoromethyl)pyrimidin-4-yl]oxy}piperidin-1-yl)ethyl]-3-pyridin-2-yl-L-alaninamide]",did not affect,did not affect,suppressed,–,–,–
"CC(=O)O[C@H]1C(=O)[C@@]2(C)[C@H]([C@H](OC(=O)c3ccccc3)[C@]3(O)C[C@H](OC(=O)[C@H](O)[C@@H](NC(=O)c4ccccc4)c4ccccc4)C(C)=C1C3(C)C)[C@]1(OC(C)=O)CO[C@@H]1C[C@@H]2O [paclitaxel, reference compound]",–,–,–,increased,very clearly accentuated,clearly recognized
